US20090226500A1, “SUTURES AND ANTI-SCARRING AGENTS” (Angiotech Pharmaceuticals, Inc, priority 2006, published 2009)
Like-named read-outs stand apart in the source and are kept apart here.

Legend:
Smooth muscle cells = experiment: Proliferation of smooth muscle cells; assay type: cell-based; settings: 72 hours, CYQUANT; read-out: IC50 proliferation of smooth muscle cells
How it was run: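 Smooth muscle cells at 600 cells/well, exposed to paclitaxel (DMSO stocks 10^−8 to 10^−2 M) in triplicate for 72 h at 37 °C. Proliferation read with CyQUANT GR dye in lysis buffer.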

[1] = tested on: IL-1β production by THP-1 cells; experiment: IL-1β production by macrophages; assay type: cell-based, human; settings: Homo sapiens, read-out: IC50 IL-1β production
[2] = tested on: TNFα production by THP-1 cells; experiment: TNF-alpha production by macrophages; assay type: cell-based, human; settings: Homo sapiens; THP-1 cells stimulated with opsonized zymosan, 24 hours; read-out: IC50 TNFα production
How it was run: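 THP-1 cells (1×10^6 per well, 10% FCS) were stimulated with 1 mg/ml serum-opsonized zymosan and incubated with drug in triplicate for 24 h at 37 °C. TNFα in the supernatants was quantified by sandwich ELISA (HRP/TMB read-out) against a recombinant human TNFα standard curve.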

human fibroblasts = experiment: Cell proliferation of fibroblasts; assay type: cell-based; settings: Fibroblast, 72 hours, CYQUANT, read-out: IC50 cell proliferation of fibroblasts
How it was run: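 Human fibroblasts plated at 600 cells/well, attached overnight, then exposed to drug in triplicate for 72 h at 37°C. Cell content read with CYQUANT GR dye in lysis buffer after 3-5 min at room temperature.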

Row | Compound | IC50 (Smooth muscle cells) | IC50 ([1]; THP-1, 24 h) | IC50 [2] | IC50 (human fibroblasts) | IC50 ([1]; THP-1 cells stimulated with opsonized zymosan, 24 hours)
1 | CC1=C(O)C(=O)C=C2C1=CC=C1[C@@]2(C)CC[C@@]2(C)[C@@H]3C[C@](C)(C(=O)O)CC[C@]3(C)CC[C@]12C [celastrol] | 493 nM | 23 nM | 87 nM | 100 to 600 nM | 
2 | COc1c(C)c2c(c(O)c1C/C=C(\C)CCC(=O)O)C(=O)OC2 [mycophenolic acid] | 579 nM |  | 756 nM | 100 to 600 nM | 2890 nM
